Results on 24 compounds are retold here after patent US20240124442A1, “TRICYCLIC-AMIDO-BICYCLIC PRMT5 INHIBITORS” (AMGEN INC., priority 2021, published 2024).

SMILES strings stand for the structures. pIC50: −log10 of the molar value.

The test system of one experiment is HCT116 MTAP null cells. Nature of the experiment: HCT116 MTAP null cell line proliferation / cell viability (CellTiter-Glo, 6 days). Format: cell-based. The settings on record: 144 h; HCT116 MTAP null cells, 6 days treatment, CellTiter-Glo cell viability; read-out: HCT-116 MTAP null IC50. The essentials:
(§1)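 Isogenic HCT116 pair (parental and MTAP-knockout) in RPMI 1640 + 10% FBS, treated 6 days with 8–9-point 1:3 dilutions from 1 or 10 μM top, or 22-point 1:2 dilutions from 10 or 50 μM top. Viability by CellTiter-Glo luminescence; IC50 from 4-parameter logistic fit or sigmoidal fit with Hill slope fixed at −1.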

The subject of the next experiment is HCT116 WT cells. Nature of the experiment: HCT116 WT (parent) cell line proliferation / cell viability (CellTiter-Glo, 6 days). To be noted: Homo sapiens, HCT-116, 144 h, 6 days treatment. Format: cell-based. In outline: as §1

For `CC(=O)Nc1ccc(-c2ccc3c(c2)OC[C@H]3N(C)C(=O)c2ccc3nc(N)c4cnn(C)c4c3c2)cn1` [Example 647, N-((3S)-6-(6-acetamido-3-pyridinyl)-2,3-dihydro-1-benzofuran-3-yl)-4-amino-N,1-dimethyl-1H-pyrazolo[4,3-c]quinoline-8-carboxamide], the pIC50 is 8.10 in the experiment with HCT116 MTAP null cells and 6.24 in the experiment with HCT116 WT cells.

For `CN(C(=O)c1ccc2nc(N)c3cnn(C)c3c2c1)[C@@H]1COc2cc(-c3cccc(C(F)(F)F)n3)ccc21` [Example 648, 4-amino-N,1-dimethyl-N-((3S)-6-(6-(trifluoromethyl)-2-pyridinyl)-2,3-dihydro-1-benzofuran-3-yl)-1H-pyrazolo[4,3-c]quinoline-8-carboxamide], the pIC50 in the experiment with HCT116 MTAP null cells was 7.52; with HCT116 WT cells it was 5.93.

In the case of `CN(C(=O)c1ccc2nc(N)c3cnn(C)c3c2c1)[C@@H]1COc2cc(-c3cccnc3C(F)(F)F)ccc21` [Example 649, 4-amino-N,1-dimethyl-N-((3S)-6-(2-(trifluoromethyl)-3-pyridinyl)-2,3-dihydro-1-benzofuran-3-yl)-1H-pyrazolo[4,3-c]quinoline-8-carboxamide], the pIC50 with HCT116 MTAP null cells was 7.74; in the experiment with HCT116 WT cells, 5.98.

For `CN(C(=O)c1ccc2nc(N)c3cnn(C)c3c2c1)[C@@H]1COc2cc(-c3cnccc3C(F)(F)F)ccc21` [Example 650, 4-amino-N,1-dimethyl-N-((3S)-6-(4-(trifluoromethyl)-3-pyridinyl)-2,3-dihydro-1-benzofuran-3-yl)-1H-pyrazolo[4,3-c]quinoline-8-carboxamide], the results for the pIC50 in the experiment with HCT116 MTAP null cells and with HCT116 WT cells were 8.10 and 6.35, respectively.

`CN(C(=O)c1ccc2nc(N)c3cnn(C)c3c2c1)[C@@H]1COc2cc(-c3cncc(C(F)(F)F)c3)ccc21` [Example 651, 4-amino-N,1-dimethyl-N-((3S)-6-(5-(trifluoromethyl)-3-pyridinyl)-2,3-dihydro-1-benzofuran-3-yl)-1H-pyrazolo[4,3-c]quinoline-8-carboxamide]: the pIC50 in the experiment on HCT116 MTAP null cells is 8.15; in the experiment on HCT116 WT cells, 6.14.

With `CN(C(=O)c1ccc2nc(N)c3cnn(C)c3c2c1)[C@@H]1COc2cc(-c3ccc(C(F)(F)F)cn3)ccc21` [Example 652, 4-amino-N,1-dimethyl-N-((3S)-6-(5-(trifluoromethyl)-2-pyridinyl)-2,3-dihydro-1-benzofuran-3-yl)-1H-pyrazolo[4,3-c]quinoline-8-carboxamide], the results for the pIC50 with HCT116 MTAP null cells and in the experiment on HCT116 WT cells were 8.22 and 6.54, respectively.

In the case of `CN(C(=O)c1ccc2nc(N)c3cnn(C)c3c2c1)[C@@H]1COc2cc(-c3c(C(F)(F)F)cnn3C)ccc21` [Example 653, 4-amino-N,1-dimethyl-N-((3S)-6-(1-methyl-4-(trifluoromethyl)-1H-pyrazol-5-yl)-2,3-dihydro-1-benzofuran-3-yl)-1H-pyrazolo[4,3-c]quinoline-8-carboxamide], the pIC50 in the experiment with HCT116 MTAP null cells is 7.72; in the experiment on HCT116 WT cells, 6.13.

For `CN(C(=O)c1ccc2nc(N)c3cnn(C)c3c2c1)[C@@H]1COc2cc(-c3cc(C(F)(F)F)nn3C)ccc21` [Example 654, 4-amino-N,1-dimethyl-N-((3S)-6-(1-methyl-3-(trifluoromethyl)-1H-pyrazol-5-yl)-2,3-dihydro-1-benzofuran-3-yl)-1H-pyrazolo[4,3-c]quinoline-8-carboxamide], the negative-log IC50 (pIC50) with HCT116 MTAP null cells is 8.00; in the experiment on HCT116 WT cells, 6.00.

Regarding `CN(C(=O)c1ccc2nc(N)c3cnn(C)c3c2c1)[C@@H]1COc2cc(-c3csc(C(F)(F)F)n3)ccc21` [Example 655, 4-amino-N,1-dimethyl-N-((3S)-6-(2-(trifluoromethyl)-1,3-thiazol-4-yl)-2,3-dihydro-1-benzofuran-3-yl)-1H-pyrazolo[4,3-c]quinoline-8-carboxamide], the pIC50 with HCT116 MTAP null cells was 7.55; with HCT116 WT cells, 6.02.

Regarding `CN(C(=O)c1ccc2nc(N)c3cnn(C)c3c2c1)[C@@H]1COc2cc(-c3cnc(C(F)(F)F)s3)ccc21` [Example 656, 4-amino-N,1-dimethyl-N-((3S)-6-(2-(trifluoromethyl)-1,3-thiazol-5-yl)-2,3-dihydro-1-benzofuran-3-yl)-1H-pyrazolo[4,3-c]quinoline-8-carboxamide], the pIC50 was 8.22 in the experiment with HCT116 MTAP null cells and 6.29 in the experiment on HCT116 WT cells.

Regarding `CN(C(=O)c1ccc2nc(N)c3cnn(C)c3c2c1)[C@@H]1COc2cc(-c3ccc4c(c3)OC(F)(F)O4)ccc21` [Example 657, 4-amino-N-((3S)-6-(2,2-difluoro-1,3-benzodioxol-5-yl)-2,3-dihydro-1-benzofuran-3-yl)-N,1-dimethyl-1H-pyrazolo[4,3-c]quinoline-8-carboxamide], the pIC50 is 7.43 with HCT116 MTAP null cells and 5.77 in the experiment with HCT116 WT cells.

As to `CN(C(=O)c1ccc2nc(N)c3cnn(C)c3c2c1)[C@@H]1COc2cc(-c3ccc(OC(F)(F)F)cc3)ccc21` [Example 658, 4-amino-N,1-dimethyl-N-((3S)-6-(4-(trifluoromethoxy)phenyl)-2,3-dihydro-1-benzofuran-3-yl)-1H-pyrazolo[4,3-c]quinoline-8-carboxamide], the pIC50 with HCT116 MTAP null cells was 7.38; in the experiment with HCT116 WT cells, 6.20.

For the compound `CN(C(=O)c1ccc2nc(N)c3cnn(C)c3c2c1)[C@@H]1COc2cc(-c3cc(F)cc(OC(F)F)c3)ccc21` [Example 659, 4-amino-N-((3S)-6-(3-(difluoromethoxy)-5-fluorophenyl)-2,3-dihydro-1-benzofuran-3-yl)-N,1-dimethyl-1H-pyrazolo[4,3-c]quinoline-8-carboxamide], the negative-log IC50 (pIC50) in the experiment on HCT116 MTAP null cells is 7.60; with HCT116 WT cells, 5.89.

With `CN(C(=O)c1ccc2nc(N)c3cnn(C)c3c2c1)[C@@H]1COc2cc(-c3cc(C(F)(F)F)ccc3F)ccc21` [Example 660, 4-amino-N-((3S)-6-(2-fluoro-5-(trifluoromethyl)phenyl)-2,3-dihydro-1-benzofuran-3-yl)-N,1-dimethyl-1H-pyrazolo[4,3-c]quinoline-8-carboxamide], the negative-log IC50 (pIC50) is 7.82 in the experiment with HCT116 MTAP null cells and 6.18 with HCT116 WT cells.

In the case of `CN(C(=O)c1ccc2nc(N)c3cnn(C)c3c2c1)[C@@H]1COc2cc(-c3ccc(C(F)(F)F)cc3F)ccc21` [Example 661, 4-amino-N-((3S)-6-(2-fluoro-4-(trifluoromethyl)phenyl)-2,3-dihydro-1-benzofuran-3-yl)-N,1-dimethyl-1H-pyrazolo[4,3-c]quinoline-8-carboxamide], the pIC50 in the experiment with HCT116 MTAP null cells was 7.85; in the experiment with HCT116 WT cells, 6.32.

Turning to `CN(C(=O)c1ccc2nc(N)c3cnn(C)c3c2c1)[C@@H]1COc2cc(-c3ccnc(OCC(F)(F)F)c3)ccc21` [Example 662, 4-amino-N,1-dimethyl-N-((3S)-6-(2-(2,2,2-trifluoroethoxy)-4-pyridinyl)-2,3-dihydro-1-benzofuran-3-yl)-1H-pyrazolo[4,3-c]quinoline-8-carboxamide], the pIC50 was 7.68 in the experiment on HCT116 MTAP null cells and 5.95 with HCT116 WT cells.

Take `CN(C(=O)c1cc2c3c(c(N)nc2cc1F)COC3)[C@@H]1COc2cc(-c3ccc(S(F)(F)(F)(F)F)cc3)ccc21` [Example 667, 4-amino-7-fluoro-N-methyl-N-((3S)-6-(4-(pentafluoro-lambda~6 ~- sulfanyl)phenyl)-2,3-dihydro-1-benzofuran-3-yl)-1,3-dihydrofuro[3,4-c]quinoline-8-carboxamide]: the pIC50 is 6.42 with HCT116 MTAP null cells and 5.15 in the experiment with HCT116 WT cells.

`CN(C(=O)c1ccc2nc(N)c3cnn(C)c3c2c1)[C@@H]1COc2cc(-c3ccc(S(F)(F)(F)(F)F)cc3)ccc21` [Example 668, 4-amino-N,1-dimethyl-N-((3S)-6-(4-(pentafluoro-lambda~6~- sulfanyl)phenyl)-2,3-dihydro-1-benzofuran-3-yl)-1H-pyrazolo[4,3-c]quinoline-8-carboxamide]: the pIC50 in the experiment on HCT116 MTAP null cells was 7.07; with HCT116 WT cells it was 5.53.

`COc1ccc2c(c1)OC[C@H]2N(C)C(=O)c1ccc2nc(N)c3cnn(C)c3c2c1` [Example 671, (S)-4-amino-N-(6-methoxy-2,3-dihydrobenzofuran-3-yl)-N,1-dimethyl-1H-pyrazolo[4,3-c]quinoline-8-carboxamide]: the pIC50 was 7.47 in the experiment on HCT116 MTAP null cells and 5.37 with HCT116 WT cells.

Take `CN(C(=O)c1ccc2nc(N)c3cnn(C)c3c2c1)[C@@H]1COc2cc(OC3CC3)ccc21` [Example 672, (S)-4-amino-N-(6-cyclopropoxy-2,3-dihydrobenzofuran-3-yl)-N,1-dimethyl-1H-pyrazolo[4,3-c]quinoline-8-carboxamide 2,2,2-trifluoroacetate]: the values for the pIC50 in the experiment on HCT116 MTAP null cells and in the experiment with HCT116 WT cells were 7.36 and 5.45, respectively.

`CN(C(=O)c1ccc2nc(N)c3cnn(C)c3c2c1)[C@@H]1COc2ccccc21` [Example 673, (S)-4-amino-N-(2,3-dihydrobenzofuran-3-yl)-N,1-dimethyl-1H-pyrazolo[4,3-c]quinoline-8-carboxamide 2,2,2-trifluoroacetate]: the negative logarithm of the IC50 (pIC50) in the experiment with HCT116 MTAP null cells is 6.92; in the experiment on HCT116 WT cells, 4.88.

Regarding `CCOc1ccc2c(c1)OC[C@H]2N(C)C(=O)c1cc2c3c(c(N)nc2cn1)COC3` [Example 674, 4-amino-N-((3S)-6-ethoxy-2,3-dihydro-1-benzofuran-3-yl)-N-methyl-1,3-dihydrofuro[3,4-c][1,7]naphthyridine-8-carboxamide], the results for the pIC50 in the experiment on HCT116 MTAP null cells and in the experiment on HCT116 WT cells were 6.81 and 5.06, respectively.

With `CCOc1ccc2c(c1)OC[C@H]2N(C)C(=O)c1ccc2nc(N)c3cnn(C)c3c2c1` [Example 675, 4-amino-N-((3S)-6-ethoxy-2,3-dihydro-1-benzofuran-3-yl)-N,1-dimethyl-1H-pyrazolo[4,3-c]quinoline-8-carboxamide], the results for the negative logarithm of the IC50 (pIC50) in the experiment with HCT116 MTAP null cells and in the experiment with HCT116 WT cells were 7.60 and 5.56, respectively.

As for `CN(C(=O)c1ccc2nc(N)c3cnn(C)c3c2c1)[C@@H]1COc2cc(OC3CCC3)ccc21` [Example 676, 4-amino-N-((3S)-6-(cyclobutyloxy)-2,3-dihydro-1-benzofuran-3-yl)-N,1-dimethyl-1H-pyrazolo[4,3-c]quinoline-8-carboxamide], the negative-log IC50 (pIC50) was 7.40 in the experiment with HCT116 MTAP null cells and 5.59 with HCT116 WT cells.
